Entries after “also recorded” stand apart in the source; their conditions may differ.

The test system of assay [1] is HIV-1 isolate (X4). In kind it is cell-based.
The next assay concerns CD4. In kind it is cell-based, human.
In assay [2] the test system is HIV-1 isolate (X4). Put plainly: HIV replication (p24 antigen release) in Jurkat cell lines stably expressing NS5A proteins/peptides. The class given is cell-based. Conditions: Jurkat cell lines stably expressing the protein/peptide vs vector and frame-shift controls.
A further assay has as its system SDF-1. The class given is cell-based, human.
The test system of a further assay is CXCR4. In kind it is cell-based, human.
The next assay concerns Jurkat cells. In kind it is cell-based, human.

On to “DVIRAGPAWDSVAPAD [152-167scr, negative control, reference compound]”, for which the HIV replication result with HIV-1 isolate (X4) [1] was “Neither peptide inhibited HIV replication”. Further, the CD4 surface expression result in the assay on CD4 was “do not”.

In the case of “VDGIPVAWDADARAPA (Hepatitis GB virus C) [S158A]”, the “HIV replication (HIV p24 antigen release into culture supernatants)” value in the assay with HIV-1 isolate (X4) [2] is “inhibited HIV replication; also recorded: significantly less HIV replication than FS and VC”. The CD4 surface expression result in the assay on CD4 was “do not”.

Consider VDGIPVEWDADARAPA [S158E], for which the “SDF-1 release into culture supernatants” value with SDF-1 is listed as “induced SDF-1 release”. In addition, the CXCR4 surface expression result in the assay on CXCR4 is “significantly less CXCR4 expressed”. In the assay with HIV-1 isolate (X4) [2], the “HIV replication (HIV p24 antigen release into culture supernatants)” value was “significantly inhibited; also recorded: significantly less HIV replication than all other cell lines”. The CD4 surface expression result in the assay with CD4 is given as “down-regulate CD4”.

For “VDGIPVGWDADARAPA (Hepatitis GB virus C) [S158G]”, the “HIV replication (HIV p24 antigen release into culture supernatants)” value with HIV-1 isolate (X4) [2] is “inhibited HIV replication; also recorded: significantly less HIV replication than FS and VC”. Besides, in the assay on CD4, the CD4 surface expression entry was “do not”.

For the sequence “VDGIPVSWDADARA (Hepatitis GB virus C) [152-165]”, the “SDF-1 release into culture supernatants” value in the assay with SDF-1 was “induced”. Moreover, the “HIV replication (HIV p24 antigen release into culture supernatants)” value with HIV-1 isolate (X4) [2] is given as “significantly reduced”.

For “VDGIPVSWDADARAPA (Hepatitis GB virus C) [152-167]”, in the assay on Jurkat cells, the “CD4 mRNA regulation, in words” value was “down-regulated”; the “regulation of Th2 cytokines, TNFα, and BCL2 mRNA” value was “do not appear to be altered”. For the same sequence, in the assay with HIV-1 isolate (X4) [2], the “HIV replication (HIV p24 antigen release into culture supernatants)” value is on record as “significantly reduced”. In the assay with CD4, the CD4 surface expression result is “down-regulate CD4”.
